{
  "source": "patent US6448282B1",
  "about": "“1H-4(5)-substituted imidazole derivatives” (Gliatech, Inc., priority 1995, dated 2002)",
  "data": [
    {"system": "cat", "assay": "not given", "conditions": "cited from earlier work", "values": [
      {"smiles": "S=C(NC1CCCCC1)N1CCC(c2cnc[nH]2)CC1", "note": "[thioperamide]", "wakefulness": "enhanced wakefulness in a dose-dependent fashion"}
    ]},
    {"system": "cat", "assay": "not given", "conditions": "oral administration; cited from earlier work", "values": [
      {"smiles": "C[C@@H](N)Cc1cnc[nH]1", "note": "[RAMHA]", "deep slow wave sleep": "significant increase"}
    ]},
    {"system": "electrically-induced convulsions", "assay": "not given", "conditions": "after electrically-induced convulsions; cited from earlier work", "values": [
      {"smiles": "S=C(NC1CCCCC1)N1CCC(c2cnc[nH]2)CC1", "note": "[thioperamide]", "durations of every convulsive phase": "significantly and dose-dependently decrease"}
    ]},
    {"system": "electrically-induced convulsions", "assay": "not given", "conditions": "in vivo; cited from earlier work", "values": [
      {"smiles": "S=C(NC1CCCCC1)N1CCC(c2cnc[nH]2)CC1", "note": "[thioperamide]", "electroconvulsive threshold": "increase the electroconvulsive threshold"}
    ]},
    {"system": "histamine synthesis and release", "assay": "not given", "conditions": "in vivo studies; cited from earlier work", "values": [
      {"smiles": "S=C(NC1CCCCC1)N1CCC(c2cnc[nH]2)CC1", "note": "[thioperamide]", "synthesis and release of histamine": "increase in synthesis and release of histamine"}
    ]},
    {"biological_target": "T1, Histamine H3 receptor (Rattus norvegicus, UniProt Q9QYN8)", "T1 construct": "from tissue; host or cells: rat cerebral cortex membranes", "T1 sequence (Q9QYN8 whole entry)": "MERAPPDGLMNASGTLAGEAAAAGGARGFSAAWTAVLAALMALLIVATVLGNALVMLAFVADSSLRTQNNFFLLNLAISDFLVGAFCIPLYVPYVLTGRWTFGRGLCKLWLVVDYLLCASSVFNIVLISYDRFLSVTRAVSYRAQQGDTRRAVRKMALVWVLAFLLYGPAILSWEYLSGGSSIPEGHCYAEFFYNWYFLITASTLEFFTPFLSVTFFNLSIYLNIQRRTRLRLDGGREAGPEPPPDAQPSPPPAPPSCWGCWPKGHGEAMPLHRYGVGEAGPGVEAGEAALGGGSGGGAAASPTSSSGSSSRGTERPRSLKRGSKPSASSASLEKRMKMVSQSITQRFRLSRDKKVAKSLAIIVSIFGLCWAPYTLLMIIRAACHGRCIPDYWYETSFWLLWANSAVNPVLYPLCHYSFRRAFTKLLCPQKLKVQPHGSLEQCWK", "assay": "In vitro histamine H3 receptor binding analysis, [3H]-Nα-methylhistamine, rat cortical membranes", "conditions": "Ki=IC50/(1+([Ligand]/[Kd])", "method": "Briefly, animals were sacrificed by decapitation and the cerebral cortex was rapidly removed. Rat cortices were mechanically homogenized with an Omni 1000 motor driven homogenizer in 10 volumes (wt/vol) of Krebs-Ringers Hepes buffer (pH 7.4) containing the following protease inhibitors; EDTA (10 mM), PMSF (0.1 mM), chymostatin (0.2 mg/50 ml) and leupeptin (0.2 mg/50 ml). The homogenate was centrifuged in a Sorvall at ˜40,000×g for 30 min. The pellet was resuspended by mechanical homogenization in 25 ml water and lysed on ice for 30 min. The homogenate was recentrifuged and the membrane lysis was repeated. The membranes were recentrifuged and the final pellet was resuspended in 14 volumes of water to give approximately 200 μg protein/100 μl final concentration. The suspension was stored at −80° C. prior to use. Protein concentrations were determined by Coomassie Plus Protein Assay (Pierce, Rockford, Ill.).\nNonspecific binding (NSB) was accounted for by the inclusion of thioperamide (10 μM). The samples were incubated for 40 min at 25° C. Samples were filtered through glass fiber strips, pre-washed with 0.3% polyethyleneimine, using a Brandell cell harvester. […] Filters were transferred to polyethylene minivials and counted in 3.5 ml of scintillation fluid (Ecolume, ICN Biomedicals, Inc.). […] Saturation and competition experiments were analyzed with the ReceptorFit saturation and competition curve fitting programs (Lundon Software, Inc., Cleveland, Ohio).", "units": {"Ki": "nM"}, "values": [
      {"smiles": "N[C@@H](Cc1ccccc1)C(=O)NCCc1c[nH]cn1", "note": "[Example 1, 2-(S)-Amino-N-(2-imidazol-4-yletyl)-3-phenyl propanamide]", "Ki": "104 ± 14"},
      {"smiles": "O=C(NCCc1c[nH]cn1)[C@@H]1CCCN1", "note": "[Example 2, N-(2-Imidazol-4-ylethyl)-(S)-pyrrolidin-2-ylformamide]", "Ki": "202 ± 2"},
      {"smiles": "O=C(NCCc1c[nH]cn1)[C@@H]1Cc2ccccc2CN1", "note": "[Example 3]", "Ki": "82.7 ± 7.7"},
      {"smiles": "N[C@H](Cc1ccccc1)C(=O)NCCc1c[nH]cn1", "note": "[Example 4, 2-(R)-Amino-N-(2-imidazol-4-yletyl)-3-phenyl propanamide]", "Ki": "> 10000"},
      {"smiles": "N[C@@H](Cc1ccc(F)cc1)C(=O)NCCc1c[nH]cn1", "note": "[Example 5, 2-(S)-Amino-3-(4-flurophenyl)-N-(2-imidazoyl-4-ylethyl)propanamide]", "Ki": "84.5 ± 12.8"},
      {"smiles": "N[C@@H](CC1CCCCC1)C(=O)NCCc1cnc[nH]1", "note": "[Example 6, 2-(S)-Amino-3-cyclohexyl-N-(2-imidazol-4-ylethyl)propanamide]", "Ki": "30.8 ± 2.1"},
      {"smiles": "CN[C@@H](Cc1ccccc1)C(=O)NCCc1c[nH]cn1", "note": "[Example 7]", "Ki": "1650 ± 310"},
      {"smiles": "N[C@@H](Cc1cccc2ccccc12)C(=O)NCCc1c[nH]cn1", "note": "[Example 8, 2-(S)-Amino-N-(2-imidazol-4-ylethyl)-3-naphthylpropanamide]", "Ki": "299 ± 82"},
      {"smiles": "N[C@H](C(=O)NCCc1c[nH]cn1)c1ccccc1", "note": "[Example 9, 2-(S)-Amino-N-(2-imidazol-4-ylethyl)-2-phenylethanamide]", "Ki": "630 ± 51"},
      {"smiles": "CC(=O)N[C@@H](CC1CCCCC1)C(=O)NCCc1c[nH]cn1", "note": "[Example 10, 2-(S)-(Acetylamino)-3-cycohexyl-N-(2-imidazol-4-ylethyl)propanamide]", "Ki": "5490 ± 255"},
      {"smiles": "N[C@@H](CCc1ccccc1)C(=O)NCCc1c[nH]cn1", "note": "[Example 11, 2-(S)-Amino-N-(2-imidazol-4-ylethyl)-4-phenylbutanamide]", "Ki": "10.9 ± 1.7"},
      {"smiles": "O=C(NCCc1c[nH]cn1)[C@@H]1CC2CCCCC2N1", "note": "(stereo partly drawn) [Example 12, (7-Azabicyclo[4.3.0]non-(S)-8-yl)-N-(2-imidazol-4-ylethyl)formamide]", "Ki": "11.1 ± 0.4"},
      {"smiles": "N[C@@H](Cc1ccc(OCc2ccccc2)cc1)C(=O)NCCc1c[nH]cn1", "note": "[Example 13, 2-(S)-Amino-N-(2-imidazol-4-ylethyl)-3-(4-(phenylmethoxy)phenyl) propanamide]", "Ki": "199 ± 24"},
      {"smiles": "N[C@@H](COCc1ccccc1)C(=O)NCCc1c[nH]cn1", "note": "[Example 14, 2-(S)-Amino-N-(2-imidazol-4-ylethyl)-3-(phenylmethoxy)propanamide]", "Ki": "122 ± 11"},
      {"smiles": "N[C@@H](CC(=O)OCc1ccccc1)C(=O)NCCc1c[nH]cn1", "note": "[Example 15, Phenylmethyl-3-(S)-amino-3-(N-(2-imidazol-4-ylethyl)carbamoyl)propanoate]", "Ki": "81.6 ± 13.6"},
      {"smiles": "N[C@@H](Cc1c[nH]cn1)C(=O)NCCc1c[nH]cn1", "note": "[Example 16, 2-(S)-Amino-3-imidazol-4-yl-N-(2-imidazol-4-ylethyl)propanamide]", "Ki": "3260 ± 457"},
      {"smiles": "Cc1c(C)c(S(=O)(=O)NC(=N)NCCC[C@H](N)C(=O)NCCc2c[nH]cn2)c(C)c2c1OC(C)(C)CC2", "note": "[Example 17, 2-(S)-Amino-N-(2-imidazol-4ylethyl)-5-((imino(((2,2,5,7,8-pentamethylchroman-6-yl)sulfonyl)amino)methyl)amino)pentanamide]", "Ki": "14 ± 3"},
      {"smiles": "CN(CCc1c[nH]cn1)C(=O)[C@@H]1CC2CCCCC2N1", "note": "(stereo partly drawn) [Example 18, (7-Azabicyclo[4.3.0]non-(S)-8-yl)-N-(2-imidazol-4-ylethyl)-N-methylformamide]", "Ki": "45 ± 11"},
      {"smiles": "N=C(N)NCCC[C@H](N)C(=O)NCCc1c[nH]cn1", "note": "[Example 19, 5-(Amidinoamino)-2-(S)-amino-N-(2-imidazol-4-ylethyl)pentanamide]", "Ki": "63 ± 1"},
      {"smiles": "CC(C)C[C@H](N)C(=O)NCCc1c[nH]cn1", "note": "[Example 20, 2-(S)-Amino-N-(2-imidazol-4-ylethyl)-4-methylpentanamide]", "Ki": "122 ± 37"},
      {"smiles": "C[C@H](Cc1c[nH]cn1)NC(=O)[C@@H]1CC2CCCCC2N1", "note": "(stereo partly drawn) [Example 21]", "Ki": "231 ± 15"},
      {"smiles": "c1nc(CCNC[C@@H]2CC3CCCCC3N2)c[nH]1", "note": "(stereo partly drawn) [Example 22, ((7-Azabicyclo[4.3.0]non-(S)-8-yl)methyl)(2-imidazol-4-ylethyl)amine]", "Ki": "66 ± 4"},
      {"smiles": "C(#CCCC1CCCCC1)CCc1c[nH]cn1", "note": "[Example 23, 4-(6-Cyclohexylhex-3-ynyl)imidazole]", "Ki": "2.9 ± 0.2"},
      {"smiles": "C(=C/CCC1CCCCC1)/CCc1c[nH]cn1", "note": "[Example 24, 4-(6-Cyclohexyl-cis-3-enyl)imidazole]", "Ki": "4.2 ± 0.6"},
      {"smiles": "C(=C\\CCC1CCCCC1)/CCc1c[nH]cn1", "note": "[Example 25, 4-(6-Cyclohexylhex-trans-3-enyl)imidazole]", "Ki": "16 ± 2"},
      {"smiles": "N[C@H](/C=C/CCc1c[nH]cn1)CC1CCCCC1", "note": "[Example 26, 1-Cyclohexyl-6-imidazol-4-ylhex-trans-3-en-2-(S)-ylamine]", "Ki": "1 ± 0.1"},
      {"smiles": "CCC#CCCc1c[nH]cn1", "note": "[Example 27, 4-Hex-3-ynylimidazole]", "Ki": "79 ± 22"},
      {"smiles": "CCCC#CCCc1c[nH]cn1", "note": "[Example 28, 4-Heptyl-3-ynylimidazole]", "Ki": "27 ± 7.5"},
      {"smiles": "CC(C)CCC#CCCc1c[nH]cn1", "note": "[Example 29, 4-(7-Methyloct-3-ynyl)imidazole]", "Ki": "3.7 ± 1.1"},
      {"smiles": "C(#CCCC1CCCC1)CCc1c[nH]cn1", "note": "[Example 30, 4-(6-Cyclopentylhex-3-ynyl)imidazole]", "Ki": "0.95 ± 0.3"},
      {"smiles": "CC(C)(C)CCC#CCCc1c[nH]cn1", "note": "[Example 32, 4-(7,7-Dimethyloct-3-ynyl)imidazole]", "Ki": "0.8 ± 0.4"},
      {"smiles": "CCCCCC#CCCc1c[nH]cn1", "note": "[Example 33, 4-Non-3-ynylimidazole]", "Ki": "5.6 ± 1"},
      {"smiles": "CCCCCCCC#CCCc1c[nH]cn1", "note": "[Example 34, 4-Undec-3-ynylimidazole]", "Ki": "2.8 ± 0.7"},
      {"smiles": "C(#CCCN1CCOCC1)CCc1c[nH]cn1", "note": "[Example 35, 4-(6-Imidazol-4-ylhex-3-ynyl)morpholine]", "Ki": "1210 ± 80"},
      {"smiles": "C(#Cc1c[nH]cn1)CCCC1CCCCC1", "note": "[Example 36, 4-(5-Cyclohexylpent-1-ynyl)imidazole]", "Ki": "863 ± 139"},
      {"smiles": "C(#CCCc1c[nH]cn1)CCCC1CCCCC1", "note": "[Example 37, 4-(7-Cyclohexylhept-3-ynyl)imidazole]", "Ki": "3.4 ± 1.7"},
      {"smiles": "C(#Cc1c[nH]cn1)CCCc1ccccc1", "note": "[Example 38, 4-(5-Phenylpent-1-ynyl)imidazole]", "Ki": "591 ± 36"},
      {"smiles": "C(#CCCc1c[nH]cn1)CCCc1ccccc1", "note": "[Example 39, 4-(7-Phenylhept-3-ynyl)imidazole]", "Ki": "6.7 ± 0.6"},
      {"smiles": "CCCCC#CCCc1c[nH]cn1", "note": "[Example 40, 4-Oct-3-ynylimidazole]", "Ki": "3 ± 0.2"},
      {"smiles": "c1ncc(CCCCCCC2CCCCC2)[nH]1", "note": "[Example 41, 4-(6-Cyclohexylhexyl)imidazole]", "Ki": 74.5},
      {"smiles": "C(=C/CCc1c[nH]cn1)/CCc1ccccc1", "note": "[Example 42, 4-(6-Phenylhex-cis-3-enyl)imidazole]", "Ki": "5.5 ± 0.02"},
      {"smiles": "C#CCCc1c[nH]cn1", "note": "[Example 45, 4-But-3-ynylimidazole]", "Ki": "66 ± 5.5"},
      {"smiles": "C#Cc1c[nH]cn1", "note": "[Example 46, 4-Ethynylimidazole]", "Ki": "> 10000"},
      {"smiles": "BrC(Br)=CCCc1c[nH]cn1", "note": "[Example 47, 4-(4,4-Dibromobut-3-enyl)imidazole]", "Ki": "26 ± 9.6"},
      {"smiles": "BrC(Br)=Cc1c[nH]cn1", "note": "[Example 48, 4-(2,2-Dibromovinyl)imidazole]", "Ki": "> 10000"}
    ]},
    {"system": "rats", "assay": "not given", "conditions": "cited from earlier work", "values": [
      {"smiles": "S=C(NC1CCCCC1)N1CCC(c2cnc[nH]2)CC1", "note": "[thioperamide]", "wakefulness, slow wave and REM sleep": "increase wakefulness and decrease slow wave and REM sleep"}
    ]}
  ]
}
